Measurements taken from ChEMBL document CHEMBL1201862, “PubChem BioAssay data set” (2004).
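Results reflect a 48-hour exposure of cells in 96-well plates to compound at five concentrations. The concentration for 50% growth inhibition is given as GI50.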 Active and inactive are the calls of the source. No stated cut-off is given here; in the data, active = GI50 up to about 1.1 µM and inactive = higher.

Legend:
Assay in all cases: NCI anticancer screen, dose series, 48 h
OVCAR-5 = test system: OVCAR-5
SNB-19 = test system: SNB-19
SK-OV-3 = test system: SK-OV-3
CAKI-1 = test system: CAKI-1
CCRF-CEM = test system: CCRF-CEM
SK-MEL-2 = test system: SK-MEL-2
HCC 2998 = test system: HCC 2998
KM12 = test system: KM12
SR = test system: SR
M14 = test system: M14
K562 = test system: K562
TK-10 = test system: TK-10
UACC-62 = test system: UACC-62
MCF7 = test system: MCF7
MOLT-4 = test system: MOLT-4
OVCAR-3 = test system: OVCAR-3
SK-MEL-28 = test system: SK-MEL-28
HOP-92 = test system: HOP-92
UO-31 = test system: UO-31
HL-60 = test system: HL-60
NCI-H460 = test system: NCI-H460
HCT-15 = test system: HCT-15
U-251 = test system: U-251
HCT-116 = test system: HCT-116
MDA-MB-231 = test system: MDA-MB-231
RPMI-8226 = test system: RPMI-8226
A498 = test system: A498
IGROV-1 = test system: IGROV-1
EKVX = test system: EKVX
HOP-62 = test system: HOP-62
BT-549 = test system: BT-549
786-0 = test system: 786-0
NCI-H226 = test system: NCI-H226
HT-29 = test system: HT-29
LOX IMVI = test system: LOX IMVI
SF-295 = test system: SF-295
SNB-75 = test system: SNB-75
MDA-N = test system: MDA-N
NCI/ADR-RES = test system: NCI/ADR-RES
RXF 393 = test system: RXF 393
MDA-MB-435 = test system: MDA-MB-435
UACC-257 = test system: UACC-257
Hs-578T = test system: Hs-578T
DU-145 = test system: DU-145
Malme-3M = test system: Malme-3M
SF-268 = test system: SF-268
ACHN = test system: ACHN
SK-MEL-5 = test system: SK-MEL-5
OVCAR-8 = test system: OVCAR-8
SW-620 = test system: SW-620
NCI-H23 = test system: NCI-H23
OVCAR-4 = test system: OVCAR-4
COLO 205 = test system: COLO 205
A549 = test system: A549
PC-3 = test system: PC-3
SF-539 = test system: SF-539
SN12C = test system: SN12C

SMILES: O=C1c2cccc3cccc(c23)C(=O)N1CCCNOCCONCCCN1C(=O)c2cccc3cccc(c23)C1=O
- GI50 (OVCAR-5): > 100 µM (inactive)
- GI50 (SNB-19): 47.9 µM (inactive)
- GI50 (SK-OV-3): > 100 µM (inactive)
- GI50 (CAKI-1): 49.3 µM (inactive)
- GI50 (CCRF-CEM): 11.8 µM (inactive)
- GI50 (SK-MEL-2): > 100 µM (inactive)
- GI50 (HCC 2998): 98.2 µM (inactive)
- GI50 (KM12): > 100 µM (inactive)
- GI50 (SR): 81.7 µM (inactive)
- GI50 (M14): 62.4 µM (inactive)
- GI50 (K562): 27 µM (inactive)
- GI50 (TK-10): > 100 µM (inactive)
- GI50 (UACC-62): > 100 µM (inactive)
- GI50 (MCF7): 64.7 µM (inactive)
- GI50 (MOLT-4): 12.1 µM (inactive)
- GI50 (OVCAR-3): 94 µM (inactive)
- GI50 (SK-MEL-28): > 100 µM (inactive)
- GI50 (HOP-92): 56 µM (inactive)
- GI50 (UO-31): 45.5 µM (inactive)
- GI50 (HL-60): 4.84 µM (inactive)
- GI50 (NCI-H460): 59.4 µM (inactive)
- GI50 (HCT-15): 44 µM
- GI50 (U-251): 59.7 µM (inactive)
- GI50 (HCT-116): 27.4 µM (inactive)
- GI50 (MDA-MB-231): > 100 µM (inactive)
- GI50 (RPMI-8226): 16.9 µM (inactive)
- GI50 (A498): > 100 µM (inactive)
- GI50 (IGROV-1): 62.8 µM (inactive)
- GI50 (EKVX): > 100 µM (inactive)
- GI50 (HOP-62): 62.1 µM (inactive)
- GI50 (BT-549): 73.3 µM (inactive)
- GI50 (786-0): 33.5 µM (inactive)
- GI50 (NCI-H226): 74.6 µM (inactive)
- GI50 (HT-29): 92.5 µM (inactive)
- GI50 (LOX IMVI): 43.5 µM (inactive)
- GI50 (SF-295): > 100 µM (inactive)
- GI50 (SNB-75): 42.6 µM (inactive)
- GI50 (MDA-N): > 100 µM (inactive)
- GI50 (NCI/ADR-RES): 12.7 µM (inactive)
- GI50 (RXF 393): 29.4 µM (inactive)
- GI50 (MDA-MB-435): > 100 µM (inactive)
- GI50 (UACC-257): 67.6 µM (inactive)
- GI50 (Hs-578T): 92.3 µM (inactive)
- GI50 (DU-145): > 100 µM (inactive)
- GI50 (Malme-3M): 91.2 µM (inactive)
- GI50 (SF-268): 79.4 µM (inactive)
- GI50 (ACHN): > 100 µM (inactive)
- GI50 (SK-MEL-5): 58.5 µM (inactive)
- GI50 (OVCAR-8): 43.3 µM (inactive)
- GI50 (SW-620): 66.4 µM (inactive)
- GI50 (NCI-H23): 99.8 µM (inactive)
- GI50 (OVCAR-4): 86.3 µM (inactive)
- GI50 (COLO 205): 83.8 µM (inactive)
- GI50 (A549): 95.9 µM (inactive)
- GI50 (PC-3): 55.1 µM (inactive)

SMILES: CCn1cc(C(c2ccc(Cl)cc2)n2ccnc2)c2cc(Br)ccc21 (stereo unspecified)
- GI50 (OVCAR-5): 11.7 µM (inactive)
- GI50 (SNB-19): 14.3 µM (inactive)
- GI50 (SK-OV-3): 17.7 µM (inactive)
- GI50 (CAKI-1): 13.7 µM (inactive)
- GI50 (SK-MEL-2): 17 µM (inactive)
- GI50 (HCC 2998): 13.2 µM (inactive)
- GI50 (KM12): 11.4 µM (inactive)
- GI50 (SR): 4.35 µM (inactive)
- GI50 (M14): 13.3 µM (inactive)
- GI50 (K562): 4.85 µM (inactive)
- GI50 (TK-10): 16.1 µM (inactive)
- GI50 (UACC-62): 10.9 µM (inactive)
- GI50 (MCF7): 10.1 µM (inactive)
- GI50 (MOLT-4): 1.85 µM (inactive)
- GI50 (OVCAR-3): 10.3 µM (inactive)
- GI50 (HOP-92): 4.89 µM (inactive)
- GI50 (UO-31): 6.9 µM (inactive)
- GI50 (HCT-15): 12.2 µM
- GI50 (U-251): 14.7 µM (inactive)
- GI50 (HCT-116): 16.1 µM (inactive)
- GI50 (MDA-MB-231): 14.8 µM (inactive)
- GI50 (RPMI-8226): 3.48 µM (inactive)
- GI50 (A498): 13.4 µM (inactive)
- GI50 (IGROV-1): 9.31 µM (inactive)
- GI50 (EKVX): > 100 µM (inactive)
- GI50 (HOP-62): 14.4 µM (inactive)
- GI50 (BT-549): 14.8 µM (inactive)
- GI50 (NCI-H226): 22.1 µM (inactive)
- GI50 (HT-29): 7.55 µM (inactive)
- GI50 (LOX IMVI): 12.9 µM (inactive)
- GI50 (SF-295): 10.8 µM (inactive)
- GI50 (SNB-75): 13.6 µM (inactive)
- GI50 (MDA-N): 20.1 µM (inactive)
- GI50 (NCI/ADR-RES): 12.6 µM (inactive)
- GI50 (RXF 393): 14.8 µM (inactive)
- GI50 (MDA-MB-435): 13.6 µM (inactive)
- GI50 (SF-539): 18.7 µM (inactive)
- GI50 (UACC-257): 14.1 µM (inactive)
- GI50 (Hs-578T): 18.7 µM (inactive)
- GI50 (DU-145): 16.6 µM (inactive)
- GI50 (SN12C): 22.8 µM (inactive)
- GI50 (Malme-3M): 17.7 µM (inactive)
- GI50 (SF-268): 11.2 µM (inactive)
- GI50 (ACHN): 12.8 µM (inactive)
- GI50 (SK-MEL-5): 15.7 µM (inactive)
- GI50 (OVCAR-8): 10.8 µM (inactive)
- GI50 (NCI-H23): 14.5 µM (inactive)
- GI50 (OVCAR-4): 9.64 µM (inactive)
- GI50 (COLO 205): 11.6 µM (inactive)
- GI50 (A549): 10.4 µM (inactive)
- GI50 (PC-3): 9.55 µM (inactive)
